Measured values: patent publication US7691825B2, “Adenosine A2B receptor agonists” (King Pharmaceuticals Research and Development, Inc., priority 2006, dated 2010)
Several values for one entry are separate records, joined by “and”; a condition that tells them apart may be missing. Identical values can stand only once. Like-named read-outs stand apart in the source and are kept apart here.

What was measured:
[1] = target: T1, hA1 receptors expressed in CHO cells (Homo sapiens, UniProt P30542); experiment: [3H]CHA binding hA1 CHO cells
T1 sequence (P30542 1-326): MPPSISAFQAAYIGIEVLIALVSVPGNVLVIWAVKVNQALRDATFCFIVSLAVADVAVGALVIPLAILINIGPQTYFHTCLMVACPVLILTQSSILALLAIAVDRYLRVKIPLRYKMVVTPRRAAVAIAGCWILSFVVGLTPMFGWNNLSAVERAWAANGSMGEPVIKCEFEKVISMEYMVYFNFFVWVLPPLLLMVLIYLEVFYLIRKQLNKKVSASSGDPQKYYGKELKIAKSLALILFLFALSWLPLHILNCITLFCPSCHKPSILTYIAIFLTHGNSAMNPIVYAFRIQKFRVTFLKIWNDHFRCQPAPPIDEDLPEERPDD
Method: (§2) The cells are grown adherently and maintained in Dulbecco's Modified Eagles Medium with nutrient mixture F12 (DMEM/F12) without nucleosides, containing 10% fetal calf serum, penicillin (100 U/mL), streptomycin (100 μg/mL), L-glutamine (2 mM) and Geneticin (G418, 0.2 mg/mL) at 37° C. in 5% CO2/95% air. […] For membrane preparation the culture medium is removed and the cells are washed with PBS and scraped off T75 flasks in ice-cold hypotonic buffer (5 mM Tris HCl, 2 mM EDTA, pH 7.4). The cell suspension is homogenized and centrifuged for 30 min at 100,000×g. The membrane pellet is re-suspended in 50 mM Tris HCl buffer pH 7.4 and incubated with 2 UI/mL of adenosine deaminase for 30 min at 37° C.
(§3) Binding of 1 nM [^3H]—CHA to hA1CHO cells (50 μg of protein/assay) is performed using 50 mM Tris HCl buffer pH 7.4 and at least 6-8 different concentrations of agonists studied for an incubation time of 150 min at 25° C. […] Non-specific binding is determined in the presence of 10 μM of CHA and is about 20% of the total binding. […] Filter bound radioactivity is measured by scintillation spectrometry after addition of 5 mL of Aquassure.
(§4) All experimental data are expressed as the mean±standard error of the mean (s.e. mean) of three or four independent experiments performed in duplicate.

[2] = target: T2, hA2A receptors expressed in CHO cells (Homo sapiens, UniProt P29274); experiment: [3H]CGS21680 binding hA2A CHO cells; conditions: [3H]-CGS 21680, hA2A CHO cell membranes, 180 min at 25° C.; mean ± s.e. mean
T2 construct: expressed in transfected cells; host or cells: CHO cells (stably transfected, per Klotz et al. 1998); membrane preparation
Method: as §2, §3, §4

[3] = target: T3, human A3 receptors in CHO cells (Homo sapiens, UniProt P0DMS8); experiment: cAMP assay hA3 CHO cells; format: cell-based; conditions: cyclic AMP assay, mean ± s.e. mean
T3 construct: expressed in transfected cells; host or cells: CHO cells
T3 sequence (P0DMS8 1-318): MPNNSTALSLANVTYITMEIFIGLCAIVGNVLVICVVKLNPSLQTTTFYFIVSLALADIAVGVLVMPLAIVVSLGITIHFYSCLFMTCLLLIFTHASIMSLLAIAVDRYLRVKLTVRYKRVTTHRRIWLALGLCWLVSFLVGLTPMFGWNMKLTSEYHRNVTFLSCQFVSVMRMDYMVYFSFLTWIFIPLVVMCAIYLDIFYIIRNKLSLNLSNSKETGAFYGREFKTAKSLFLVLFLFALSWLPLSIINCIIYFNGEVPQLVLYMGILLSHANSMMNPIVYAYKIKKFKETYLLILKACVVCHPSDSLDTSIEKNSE
Method: (§1) For cell preparation CHO cells transfected with human A2B or A3 receptors are washed with phosphate-buffered saline and diluted trypsin, and centrifuged for 10 min at 200 g. […] After the preincubation time at 37° C., the examined ligands (1 nM-10 μM) are added to the mixture and incubated for a further 5 min. The reaction is terminated by the addition of cold 6% trichloroacetic acid (TCA). The TCA suspension is centrifuged at 2000 g for 10 min at 4° C. and the supernatant is extracted four times with water saturated diethyl ether. […] Samples of cyclic AMP standard (0-10 pmoles) are added to each test tube containing the incubation buffer (trizma base 0.1 mM, aminophylline 8.0 mM, 2-mercaptoethanol 6.0 mM, pH 7.4) and [^3H]cyclic AMP in total volume of 0.5 mL. The binding protein previously incubated at 4° C. for 150 min, and after the addition of charcoal is centrifuged at 2000 g for 10 min. The clear supernatant is counted in a Beckman scintillation counter.

[4] = target: T4, hA2B receptors expressed in CHO cells (Homo sapiens, UniProt P29275); experiment: cAMP assay hA2B CHO cells; format: cell-based; conditions: for EC50: stimulation of cAMP levels, hA2B CHO cells, mean ± s.e. mean; for Selectivity hA1/hA2B: ratio hA1 Ki / hA2B EC50; for Selectivity hA2A/hA2B: ratio hA2A Ki / hA2B EC50; for Selectivity hA3/hA2B: ratio hA3 IC50 / hA2B EC50
T4 construct: expressed in transfected cells; host or cells: CHO cells
T4 sequence (P29275 1-332): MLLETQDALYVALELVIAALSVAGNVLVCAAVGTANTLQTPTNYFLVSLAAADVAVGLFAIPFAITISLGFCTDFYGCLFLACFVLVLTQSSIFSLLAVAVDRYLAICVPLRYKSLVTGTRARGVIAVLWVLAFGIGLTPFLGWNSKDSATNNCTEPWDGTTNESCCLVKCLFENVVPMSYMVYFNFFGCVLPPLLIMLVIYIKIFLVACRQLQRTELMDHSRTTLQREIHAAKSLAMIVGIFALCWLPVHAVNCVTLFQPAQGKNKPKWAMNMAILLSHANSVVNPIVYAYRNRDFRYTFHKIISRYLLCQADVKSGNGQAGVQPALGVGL
Method: The effects of the tested compounds may be evaluated in functional assays measuring the stimulatory capability of the ligands to increase cAMP levels in hA2B receptors expressed in CHO cells. This may done as described by Pastorin et al. in “Pyrazolo[4,3-e]-1,2,4-triazolo[1,5-c]pyrimidine derivatives as adenosine receptor antagonists.
as §1

[5] = read-out: [3H]CHA binding hA1 CHO cells Ki, 1 nM [3H]-CHA, hA1 CHO cell membranes, 150 min at 25° C., mean ± s.e. mean

T2 sequence (P29274 whole entry): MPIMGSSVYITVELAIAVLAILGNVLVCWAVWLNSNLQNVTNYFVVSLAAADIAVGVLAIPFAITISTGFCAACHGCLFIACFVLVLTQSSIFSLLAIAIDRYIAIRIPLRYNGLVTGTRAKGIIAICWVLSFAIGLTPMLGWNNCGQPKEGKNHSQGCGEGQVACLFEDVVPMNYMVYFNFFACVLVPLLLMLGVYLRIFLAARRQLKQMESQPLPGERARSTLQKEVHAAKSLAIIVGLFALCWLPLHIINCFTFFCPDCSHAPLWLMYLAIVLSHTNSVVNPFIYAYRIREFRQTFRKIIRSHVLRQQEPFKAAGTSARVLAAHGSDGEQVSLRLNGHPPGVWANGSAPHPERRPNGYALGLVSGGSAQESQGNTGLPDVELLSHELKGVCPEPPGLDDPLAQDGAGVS

Ki [1]	Ki [2]	IC50 [3]	melting point	EC50 [4]	Selectivity hA1/hA2B [4]	Selectivity hA2A/hA2B [4]	Selectivity hA3/hA2B [4]	Ki [1, 5]	Structure (SMILES)
–	–	–	171 °C	–	–	–	–	–	CCNC(=O)[C@H]1O[C@@H](n2cnc3c(NNC(=O)c4ccc(Br)o4)ncnc32)[C@H](O)[C@@H]1O [Compound 13b, (2S, 3S, 4R, 5R)-5-{6-[N′-(5-Bromo-furan-2-carbonyl)-hydrazino]-9H-purin-9-yl}-3,4-dihydroxy-tetrahydrofuran-2-carboxylic acid ethylamide]
–	1300 ± 50 nM	> 1000 nM	154 to 155 °C	227 ± 18 nM	3.08	5.73	>4.40	700 ± 25 nM	CCNC(=O)[C@H]1O[C@@H](n2cnc3c(NNC(=O)c4ccc(C)o4)ncnc32)[C@H](O)[C@@H]1O [Compound 14b, (2S, 3S, 4R, 5R)-3,4-Dihydroxy-5-{6-[N′-(5-methyl-furan-2-carbonyl)-hydrazino]-9H-purin-9-yl}-tetrahydrofuran-2-carboxylic acid ethylamide]
> 1000 nM	> 1000 nM	> 1000 nM	156 °C	175 ± 20 nM	>5.71	>5.71	>5.71	–	CCNC(=O)[C@H]1O[C@@H](n2cnc3c(NNC(=O)c4ccc(C)s4)nc(Cl)nc32)[C@H](O)[C@@H]1O [Compound 19b, (2S, 3S, 4R, 5R)-5-{2-Chloro-6-[N′-(5-methyl-thiophene-2-carbonyl)-hydrazino]-9H-purin-9-yl}-3,4-dihydroxy-tetrahydrofuran-2-carboxylic acid ethylamide]
–	633 ± 60 nM	67 ± 4 nM	153 to 154 °C	603 ± 31 nM	0.10	1.05	0.11	62 ± 4 nM	CCNC(=O)[C@H]1O[C@@H](n2cnc3c(NNC(=O)Cc4cccs4)nc(Cl)nc32)[C@H](O)[C@@H]1O [Compound 20b, (2S, 3S, 4R, 5R)-5-{2-Chloro-6-[N′-(2-thiophene-2-yl-acetyl)-hydrazino]-9H-purin-9-yl}-3,4-dihydroxy-tetrahydrofuran-2-carboxylic acid ethylamide]
–	> 1000 nM	> 1000 nM	249 to 250 °C	450 ± 29 nM	2.07	>2.22	>2.22	933 ± 76 nM	CCNC(=O)[C@H]1O[C@@H](n2cnc3c(NNC(=O)c4ccsc4)nc(Cl)nc32)[C@H](O)[C@@H]1O [Compound 21b, (2S, 3S, 4R, 5R)-5-{2-Chloro-6-[N′-(thiophene-3-carbonyl)-hydrazino]-9H-purin-9-yl}-3,4-dihydroxy-tetrahydrofuran-2-carboxylic acid ethylamide]

The next lines start with the compound.

Structure (SMILES)	Ki [1]	Ki [2]	IC50 [3]	melting point	EC50 [4]	Selectivity hA1/hA2B [4]	Selectivity hA2A/hA2B [4]	Selectivity hA3/hA2B [4]	Ki [1, 5]
CCNC(=O)[C@H]1O[C@@H](n2cnc3c(NNC(=O)c4ccccc4)ncnc32)[C@H](O)[C@@H]1O [Compound 9b, (2S, 3S, 4R, 5R)-5-[6-(N′-Benzoyl-hydrazino)-9H-purin-9-yl]-3,4-dihydroxy-tetrahydrofuran-2 carboxylic acid ethylamide]	> 1000 nM	> 1000 nM	> 1000 nM	174 to 175 °C and 173 to 174 °C	> 1000 nM	–	–	–	–
CCNC(=O)[C@H]1O[C@@H](n2cnc3c(NNC(=O)c4ccc(Cl)cc4)ncnc32)[C@H](O)[C@@H]1O [Compound 10b, (2S, 3S, 4R, 5R)-5-{6-[N′-(4-Chlorobenzoyl)-hydrazino]-9H-purin-9-yl}-3,4-dihydroxy-tetrahydrofuran-2-carboxylic acid ethylamide]	> 1000 nM	> 1000 nM	> 1000 nM	188 to 189 °C	> 1000 nM	–	–	–	–
CCNC(=O)[C@H]1O[C@@H](n2cnc3c(NNC(=O)c4cccnc4)ncnc32)[C@H](O)[C@@H]1O [Compound 11b, (2S, 3S, 4R, 5R)-3,4-Dihydroxy-5-{6-[N′-(pyridine-3-carbonyl)-hydrazino]-9H-purin-9-yl}-tetrahydrofuran-2-carboxylic acid ethylamide]	> 1000 nM	> 1000 nM	> 1000 nM	170 °C	> 1000 nM	–	–	–	–
CCNC(=O)[C@H]1O[C@@H](n2cnc3c(NNC(=O)c4ccco4)ncnc32)[C@H](O)[C@@H]1O [Compound 12b, (2S, 3S, 4R, 5R)-5-{6-[N′-(Furan-2-carbonyl)-hydrazino]-9H-purin-9-yl}-3,4-dihydroxy-tetrahydrofuran-2-carboxylic acid ethylamide]	> 1000 nM	> 1000 nM	> 1000 nM	233 to 234 °C	82 ± 10 nM	>12.19	>12.19	>12.19	–
CCNC(=O)[C@H]1O[C@@H](n2cnc3c(NNC(=O)c4nc([N+](=O)[O-])cn4C)ncnc32)[C@H](O)[C@@H]1O [Compound 15b, (2S, 3S, 4R, 5R)-3,4-Dihydroxy-5-{6-[N′-(1-methyl-4-nitro-1H-imidazole-2-carbonyl)-hydrazino]-9H-purin-9-yl}-tetrahydrofuran-2-carboxylic acid ethylamide]	> 1000 nM	> 1000 nM	> 1000 nM	169 to 170 °C	> 1000 nM	–	–	–	–
CCNC(=O)[C@H]1O[C@@H](n2cnc3c(NNC(=O)c4ccc(C)s4)ncnc32)[C@H](O)[C@@H]1O [Compound 16b, (2S, 3S, 4R, 5R)-3,4-Dihydroxy-5-{6-[N′-(5-methyl-thiophene-2-carbonyl)-hydrazino]-9H-purin-9-yl}-tetrahydrofuran-2-carboxylic acid ethylamide]	> 1000 nM	> 1000 nM	> 1000 nM	153 to 154 °C	273 ± 12 nM	>3.66	>3.66	>3.66	–
CCNC(=O)[C@H]1O[C@@H](n2cnc3c(NNC(=O)c4ccccc4)nc(Cl)nc32)[C@H](O)[C@@H]1O [Compound 17b, (2S, 3S, 4R, 5R)-5-[6{N′-Benzoyl-hydrazino)-2-chloro-9H-purin-9-yl}-3,4-dihydroxy-tetrahydrofuran-2-carboxylic acid ethylamide]	> 1000 nM	> 1000 nM	> 1000 nM	253 to 254 °C	> 1000 nM	–	–	–	–
CCNC(=O)[C@H]1O[C@@H](n2cnc3c(NNC(=O)c4ccco4)nc(Cl)nc32)[C@H](O)[C@@H]1O [Compound 18b, (2S, 3S, 4R, 5R)-5-{2-Chloro-6-[N′-(furan-2-carbonyl)-hydrazino]-9H-purin-9-yl}-3,4-dihydroxy-tetrahydrofuran-2-carboxylic acid ethylamide]	> 1000 nM	> 1000 nM	> 1000 nM	269 to 270 °C	210 ± 13 nM	>4.76	>4.76	>4.76	–
